Data set [1] is described as follows: Inhibition of PDE1 (unknown origin). More on the design: species or system Homo sapiens.
For data set [2], the target named is cGMP-inhibited 3',5'-cyclic phosphodiesterase 3A (Homo sapiens, UniProt Q14432). As to the kind of experiment: Inhibition of PDE3A (unknown origin).
A short description of data set [3]: Metabolic stability in rat liver microsomes assessed as half life. The data set is classed as ADME, Microsome.
Data set [4] addresses High affinity 3',5'-cyclic-AMP phosphodiesterase 7A (Homo sapiens, UniProt Q13946). Nature of the data set: Inhibition of PDE7A (unknown origin).
Data set [5] has as its target High affinity cGMP-specific 3',5'-cyclic phosphodiesterase 9A (Homo sapiens, UniProt O76083). Nature of the data set: Inhibition of PDE9A (unknown origin).
The nature of data set [6]: Binding affinity to PDE1 (unknown origin) assessed as inhibition constant. More on the design: species or system Homo sapiens.
Data set [7] addresses T1, Dual specificity calcium/calmodulin-dependent 3',5'-cyclic nucleotide phosphodiesterase 1A (Homo sapiens, UniProt P54750). Nature of the data set: Inhibition of PDE1A (unknown origin) using [3H]-cAMP as substrate incubated for 1 hr by SPA assay.
The target in data set [8] is T1, Dual specificity calcium/calmodulin-dependent 3',5'-cyclic nucleotide phosphodiesterase 1A. Nature of the data set: Inhibition of PDE1A3 (unknown origin).
Data set [9] has as its target T2, Dual specificity calcium/calmodulin-dependent 3',5'-cyclic nucleotide phosphodiesterase 1B (Homo sapiens, UniProt Q01064). As to the kind of experiment: Inhibition of PDE1B (unknown origin).
A short description of data set [10]: Inhibition of PDE9 (unknown origin) by fluorescent based assay. More on the design: species or system Homo sapiens.
The target of data set [11] is cGMP-specific 3',5'-cyclic phosphodiesterase (Homo sapiens, UniProt O76074). Nature of the data set: Inhibition of PDE5 (unknown origin).
Data set [12] concerns the target cGMP-inhibited 3',5'-cyclic phosphodiesterase 3B (Homo sapiens, UniProt Q13370). As to the kind of experiment: Binding affinity to PDE3B (unknown origin) using [3H]cAMP as substrate assessed as inhibition constant incubated for 1 hrs by […] assay. On the technique in general: SPR reads the build-up and loss of mass on a sensor chip optically.

Data set [13] deals with T2, Dual specificity calcium/calmodulin-dependent 3',5'-cyclic nucleotide phosphodiesterase 1B. Nature of the data set: Inhibition of PDE1B (unknown origin) using [3H]-cGMP substrate incubated for 15 mins by liquid scintillation counting method.
The nature of data set [14]: Inhibition of PDE3 (unknown origin) by fluorescent based assay. More on the design: species or system Homo sapiens.
Data set [15] has as its target Dual specificity calcium/calmodulin-dependent 3',5'-cyclic nucleotide phosphodiesterase 1C (Homo sapiens, UniProt Q14123). Nature of the data set: Inhibition of PDE1C (unknown origin) using [3H]-cAMP as substrate incubated for 1 hr by SPA assay.
The target in data set [16] is T2, Dual specificity calcium/calmodulin-dependent 3',5'-cyclic nucleotide phosphodiesterase 1B. Nature of the data set: Inhibition of PDE1B (unknown origin) using [3H]-cAMP as substrate incubated for 1 hr by SPA assay.
For data set [17], the target named is Phosphodiesterase 4 (Homo sapiens) (UniProt P27815+Q08499+Q07343+Q08493). As to the kind of experiment: Inhibition of PDE4 (unknown origin) at 10 uM relative to control. The data set is classed as protein assay.
For data set [18], the target named is 3',5'-cyclic-AMP phosphodiesterase 4D (Homo sapiens, UniProt Q08499). Nature of the data set: Inhibition of PDE4D (unknown origin).
The target in data set [19] is cGMP-dependent 3',5'-cyclic phosphodiesterase (Homo sapiens, UniProt O00408). Nature of the data set: Inhibition of full-length recombinant human PDE2A using [3H]-cGMP as substrate incubated for 10 mins by SPA assay.
Data set [20] addresses High affinity cAMP-specific and IBMX-insensitive 3',5'-cyclic phosphodiesterase 8A (Homo sapiens, UniProt O60658). Nature of the data set: Inhibition of full-length recombinant human PDE8A using [3H]-cAMP as substrate incubated for 10 mins by SPA assay.

Structures are written as SMILES. pIC50, pKi: −log10 of the molar value.

T1 sequence (P54750 whole entry): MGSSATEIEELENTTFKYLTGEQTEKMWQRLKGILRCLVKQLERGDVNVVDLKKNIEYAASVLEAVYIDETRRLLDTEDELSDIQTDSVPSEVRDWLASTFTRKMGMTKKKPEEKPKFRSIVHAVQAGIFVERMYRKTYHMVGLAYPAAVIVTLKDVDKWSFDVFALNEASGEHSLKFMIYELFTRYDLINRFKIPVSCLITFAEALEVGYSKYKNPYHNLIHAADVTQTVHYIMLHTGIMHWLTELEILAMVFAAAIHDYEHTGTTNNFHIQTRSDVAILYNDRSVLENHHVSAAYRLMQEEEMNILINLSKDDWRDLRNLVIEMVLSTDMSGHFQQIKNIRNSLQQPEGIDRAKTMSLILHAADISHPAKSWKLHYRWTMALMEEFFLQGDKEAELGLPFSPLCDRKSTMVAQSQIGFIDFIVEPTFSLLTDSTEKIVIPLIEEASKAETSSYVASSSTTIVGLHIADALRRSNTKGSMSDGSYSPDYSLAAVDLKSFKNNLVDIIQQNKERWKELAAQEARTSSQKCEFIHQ
Chain of Dual specificity calcium/calmodulin-dependent 3',5'-cyclic nucleotide phosphodiesterase 1C (Q14123 whole entry): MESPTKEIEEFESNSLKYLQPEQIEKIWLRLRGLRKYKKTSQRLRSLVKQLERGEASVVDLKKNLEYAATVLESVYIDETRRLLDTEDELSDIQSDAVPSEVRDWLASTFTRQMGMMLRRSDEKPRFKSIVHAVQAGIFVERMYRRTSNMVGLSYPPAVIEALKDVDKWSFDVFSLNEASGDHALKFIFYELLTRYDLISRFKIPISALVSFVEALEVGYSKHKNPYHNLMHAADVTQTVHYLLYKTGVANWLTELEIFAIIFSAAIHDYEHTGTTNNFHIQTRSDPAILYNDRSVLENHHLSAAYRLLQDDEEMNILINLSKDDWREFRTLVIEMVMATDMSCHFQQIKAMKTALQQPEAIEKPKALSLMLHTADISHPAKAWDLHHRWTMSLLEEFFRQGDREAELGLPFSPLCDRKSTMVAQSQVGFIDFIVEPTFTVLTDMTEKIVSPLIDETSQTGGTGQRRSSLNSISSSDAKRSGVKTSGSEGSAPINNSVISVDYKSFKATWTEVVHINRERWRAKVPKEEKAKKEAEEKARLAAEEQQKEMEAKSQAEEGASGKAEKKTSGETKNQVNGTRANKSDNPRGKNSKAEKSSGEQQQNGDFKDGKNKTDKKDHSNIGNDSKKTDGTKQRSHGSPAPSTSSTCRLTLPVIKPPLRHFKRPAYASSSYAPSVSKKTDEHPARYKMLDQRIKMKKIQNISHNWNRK
T2 sequence (Q01064 whole entry): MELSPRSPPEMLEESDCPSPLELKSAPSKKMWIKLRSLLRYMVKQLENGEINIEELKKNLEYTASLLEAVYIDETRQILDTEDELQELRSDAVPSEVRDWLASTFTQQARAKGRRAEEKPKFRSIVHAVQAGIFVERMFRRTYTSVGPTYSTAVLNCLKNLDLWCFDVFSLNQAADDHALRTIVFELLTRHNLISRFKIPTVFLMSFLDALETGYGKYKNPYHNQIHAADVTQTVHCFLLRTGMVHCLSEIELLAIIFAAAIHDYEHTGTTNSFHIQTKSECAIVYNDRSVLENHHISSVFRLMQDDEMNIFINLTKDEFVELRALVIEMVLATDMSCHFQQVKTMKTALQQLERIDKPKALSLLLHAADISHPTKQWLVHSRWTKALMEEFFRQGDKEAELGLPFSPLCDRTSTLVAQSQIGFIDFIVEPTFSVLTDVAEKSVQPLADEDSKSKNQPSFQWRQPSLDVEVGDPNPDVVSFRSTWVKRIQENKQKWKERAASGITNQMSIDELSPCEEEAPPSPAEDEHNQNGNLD
Chain of High affinity 3',5'-cyclic-AMP phosphodiesterase 7A (Q13946 whole entry): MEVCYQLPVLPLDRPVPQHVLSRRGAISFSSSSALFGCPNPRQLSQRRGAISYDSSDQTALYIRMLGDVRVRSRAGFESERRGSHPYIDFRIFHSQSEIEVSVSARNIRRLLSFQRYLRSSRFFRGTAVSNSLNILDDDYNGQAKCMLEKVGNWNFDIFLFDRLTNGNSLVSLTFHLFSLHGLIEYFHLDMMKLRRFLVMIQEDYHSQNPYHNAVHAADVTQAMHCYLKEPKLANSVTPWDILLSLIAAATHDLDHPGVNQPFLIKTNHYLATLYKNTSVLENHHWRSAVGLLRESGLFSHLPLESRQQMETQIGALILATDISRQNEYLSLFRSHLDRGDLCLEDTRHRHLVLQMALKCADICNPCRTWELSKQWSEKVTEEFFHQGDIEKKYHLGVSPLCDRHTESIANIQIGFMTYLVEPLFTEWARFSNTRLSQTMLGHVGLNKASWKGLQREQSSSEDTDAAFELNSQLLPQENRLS
Chain of High affinity cAMP-specific and IBMX-insensitive 3',5'-cyclic phosphodiesterase 8A (O60658 whole entry): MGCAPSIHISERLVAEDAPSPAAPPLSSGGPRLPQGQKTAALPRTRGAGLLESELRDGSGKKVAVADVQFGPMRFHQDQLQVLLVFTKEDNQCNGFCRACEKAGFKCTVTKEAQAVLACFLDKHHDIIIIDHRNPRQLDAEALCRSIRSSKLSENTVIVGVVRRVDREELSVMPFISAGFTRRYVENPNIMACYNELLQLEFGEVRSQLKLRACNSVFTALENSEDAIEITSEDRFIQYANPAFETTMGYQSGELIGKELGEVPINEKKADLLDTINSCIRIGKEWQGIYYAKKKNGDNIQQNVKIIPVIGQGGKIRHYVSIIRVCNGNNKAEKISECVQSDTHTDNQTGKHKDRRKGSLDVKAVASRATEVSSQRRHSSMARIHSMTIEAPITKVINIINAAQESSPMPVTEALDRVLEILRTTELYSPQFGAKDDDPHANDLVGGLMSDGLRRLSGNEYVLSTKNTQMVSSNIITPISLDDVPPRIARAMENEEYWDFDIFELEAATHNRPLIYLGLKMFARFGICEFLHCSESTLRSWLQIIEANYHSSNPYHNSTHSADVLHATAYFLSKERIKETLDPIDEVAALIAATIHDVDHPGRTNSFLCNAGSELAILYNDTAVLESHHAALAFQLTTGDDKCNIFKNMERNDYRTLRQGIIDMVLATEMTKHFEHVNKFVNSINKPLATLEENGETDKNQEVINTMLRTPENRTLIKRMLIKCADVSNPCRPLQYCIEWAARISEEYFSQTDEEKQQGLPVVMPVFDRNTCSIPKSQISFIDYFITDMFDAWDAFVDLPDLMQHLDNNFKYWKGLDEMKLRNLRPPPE
Chain of cGMP-inhibited 3',5'-cyclic phosphodiesterase 3B (Q13370 whole entry): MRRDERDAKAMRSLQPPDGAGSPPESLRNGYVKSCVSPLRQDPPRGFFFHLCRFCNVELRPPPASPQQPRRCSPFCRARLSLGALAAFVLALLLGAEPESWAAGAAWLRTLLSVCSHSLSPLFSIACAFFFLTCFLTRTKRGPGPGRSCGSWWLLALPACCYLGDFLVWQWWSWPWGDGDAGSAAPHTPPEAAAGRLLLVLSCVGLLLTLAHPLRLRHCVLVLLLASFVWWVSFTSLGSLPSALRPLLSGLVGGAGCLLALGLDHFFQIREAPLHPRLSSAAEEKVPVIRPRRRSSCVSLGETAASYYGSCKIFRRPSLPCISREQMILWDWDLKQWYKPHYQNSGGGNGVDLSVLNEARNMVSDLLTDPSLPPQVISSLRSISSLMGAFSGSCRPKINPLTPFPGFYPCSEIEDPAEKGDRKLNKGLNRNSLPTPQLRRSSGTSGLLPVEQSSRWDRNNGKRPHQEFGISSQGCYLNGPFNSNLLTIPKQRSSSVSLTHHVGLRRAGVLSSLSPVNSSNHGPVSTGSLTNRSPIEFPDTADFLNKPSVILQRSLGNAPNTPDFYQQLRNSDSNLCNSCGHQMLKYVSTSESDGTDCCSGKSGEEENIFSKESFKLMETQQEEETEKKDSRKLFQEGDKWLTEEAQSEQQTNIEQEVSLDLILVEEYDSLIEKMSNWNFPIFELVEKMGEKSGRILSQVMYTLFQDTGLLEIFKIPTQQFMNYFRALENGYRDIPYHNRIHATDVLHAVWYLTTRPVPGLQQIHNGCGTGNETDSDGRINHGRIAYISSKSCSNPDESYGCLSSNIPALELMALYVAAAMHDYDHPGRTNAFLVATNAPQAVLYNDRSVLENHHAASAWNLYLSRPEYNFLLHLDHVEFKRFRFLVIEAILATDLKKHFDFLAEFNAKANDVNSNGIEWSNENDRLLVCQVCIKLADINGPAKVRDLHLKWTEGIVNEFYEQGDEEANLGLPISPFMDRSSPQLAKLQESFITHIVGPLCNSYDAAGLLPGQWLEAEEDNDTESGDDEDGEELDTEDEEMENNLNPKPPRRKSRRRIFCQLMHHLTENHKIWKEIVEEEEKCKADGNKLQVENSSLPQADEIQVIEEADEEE
Chain of High affinity cGMP-specific 3',5'-cyclic phosphodiesterase 9A (O76083 whole entry): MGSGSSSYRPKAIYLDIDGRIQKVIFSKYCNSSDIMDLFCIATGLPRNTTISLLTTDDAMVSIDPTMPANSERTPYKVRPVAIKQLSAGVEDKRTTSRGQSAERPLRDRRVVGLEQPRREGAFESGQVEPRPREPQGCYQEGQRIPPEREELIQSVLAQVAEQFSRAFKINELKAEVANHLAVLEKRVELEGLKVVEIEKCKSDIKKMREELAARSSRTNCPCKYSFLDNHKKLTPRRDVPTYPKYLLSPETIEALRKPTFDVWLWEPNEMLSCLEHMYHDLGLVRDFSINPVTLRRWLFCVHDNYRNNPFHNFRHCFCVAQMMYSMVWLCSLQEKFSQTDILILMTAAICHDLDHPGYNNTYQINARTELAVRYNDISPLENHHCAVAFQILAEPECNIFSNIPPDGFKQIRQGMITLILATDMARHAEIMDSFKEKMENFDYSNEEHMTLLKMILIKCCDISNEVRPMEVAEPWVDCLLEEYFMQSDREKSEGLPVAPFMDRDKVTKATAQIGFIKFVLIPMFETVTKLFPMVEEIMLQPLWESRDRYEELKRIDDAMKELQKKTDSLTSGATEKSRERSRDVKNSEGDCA

The term pIC50 denotes the negative decadic logarithm of the IC50, by convention in mol/L. Turning to `CCOC(=O)C1=C[C@]2(CC)CCCN3CCc4c(n1c1ccccc41)[C@@H]32` [VINPOCETINE], in data set [1], the pIC50 is 4.52.

For orientation: half-life means the time in which the quantity being followed falls by half. In the case of `C[C@@H](Nc1nc2c(cnn2C(C)(C)C)c(=O)n1Cc1ccc(F)cc1)c1ccc(Cl)cc1`, the negative-log IC50 (pIC50) in data set [1] is 8.54; in data set [2] it was less than 5.00; in data set [4] it was less than 5.00; in data set [5], less than 5.00. Further, in data set [3], the half-life was 15.8 min.

As a reminder, the pKi is the negative decadic logarithm of the Ki, by convention in mol/L. Take `CN1C(=O)c2c(nn(Cc3ccc(-c4cccc(F)n4)cc3)c2Nc2ccccc2)N2C1=N[C@@H]1CCC[C@@H]12` [LENRISPODUN PHOSPHATE]: in [6], the pKi was 10.24.

Turning to `COCCOC(=O)C1=C(C)NC(C)=C(C(=O)OC(C)C)C1c1cccc([N+](=O)[O-])c1` (stereo not given) [NIMODIPINE], the pIC50 in data set [7] was 5.70.

With `O=c1c2c(Cc3ccccc3)n[nH]c2c2cccnc2n1-c1ccccc1`, the negative logarithm of the IC50 (pIC50) is 7.49 in data set [8] and 6.10 in data set [9].

In the case of `C[C@@H](Nc1nc2c(cnn2C2CCCC2)c(=O)[nH]1)c1ccc(Cl)cc1`, the negative logarithm of the IC50 (pIC50) in [1] was 7.10; in data set [10], 7.24.

As for `CNc1ncnc2c1ncn2Cc1ccccc1F` [BW-A78U], the pKi is 5.43 in [6] and 4.46 in data set [12]. The compound also had a pIC50 in data set [11] of 5.19.

Turning to `Cn1c(=O)c2c(Nc3ccccc3)n(Cc3ccc(-c4cccc(F)n4)cc3)nc2n(CC2CC2)c1=O`, in [13], the negative-log IC50 (pIC50) was 8.42. Further, in data set [3], the half-life worked out at 4.5 min.

For `COCc1nc2c([nH]1)c(=O)n(C)c(=O)n2CC(C)C`, the pIC50 is 5.10 in data set [1], 6.62 in data set [14] and 5.00 in data set [11].

Regarding `COc1cc2ncnc(N3C[C@@H](OO)[C@@H]4OC[C@@H](OC(C)=O)[C@@H]43)c2cc1OC`, in data set [15], the negative-log IC50 (pIC50) is 5.66.

With `CCCc1nn(C)c2c(=O)[nH]c(-c3cc(S(=O)(=O)N4CCN(C)CC4)ccc3OCC)nc12`, in data set [1], the negative-log IC50 (pIC50) is 6.40.

For the compound `COc1cc2ncnc(N3C[C@@H](Cl)[C@@H]4OC[C@@H](OC)[C@@H]43)c2cc1OC`, the negative logarithm of the IC50 (pIC50) in data set [15] is 5.62.

The inhibition is the change of the read-out against control, counted positive when it falls. Turning to `COc1ccc2c(N3C[C@@H](Cl)[C@@H]4OC[C@@H](OCc5ccccc5)[C@@H]43)ncnc2c1OC`, the negative-log IC50 (pIC50) in [7] is 5.33; in data set [16], 5.55; in [15], 6.24. In data set [17], this compound had an inhibition of 27%.

As for `COc1ccc(Cn2c(=O)n3ncnc3c3cc(CN4CCCOCC4)sc32)cc1`, in [9], the pIC50 is greater than 7.00.

For `Cn1c(=O)c2c(Nc3ccc(F)cc3)n(Cc3ccc(S(C)(=O)=O)cc3)nc2n(CC2CC2)c1=O`, the pIC50 in data set [13] was 7.68; in data set [18], 5.82; in data set [19] it was 5.07; in [4], less than 5.60; in [20] it was less than 5.00. In addition, the half-life in data set [3] was determined as 28.5 min.

`Cn1c(=O)c2c(ncn2C)n(C)c1=O` [CAFFEINE]: the negative logarithm of the IC50 (pIC50) in [1] is 3.32.
